Test results from ChEMBL document CHEMBL1151893, “Synthesis of analogs of forodesine HCl, a human purine nucleoside phosphorylase inhibitor-Part I” (Bioorg Med Chem Lett, 2009).

Each compound was assayed against T1, Purine nucleoside phosphorylase (Homo sapiens, UniProt P00491) (assay: Inhibition of human purine nucleoside phosphorylase).
T1 sequence (P00491 whole entry): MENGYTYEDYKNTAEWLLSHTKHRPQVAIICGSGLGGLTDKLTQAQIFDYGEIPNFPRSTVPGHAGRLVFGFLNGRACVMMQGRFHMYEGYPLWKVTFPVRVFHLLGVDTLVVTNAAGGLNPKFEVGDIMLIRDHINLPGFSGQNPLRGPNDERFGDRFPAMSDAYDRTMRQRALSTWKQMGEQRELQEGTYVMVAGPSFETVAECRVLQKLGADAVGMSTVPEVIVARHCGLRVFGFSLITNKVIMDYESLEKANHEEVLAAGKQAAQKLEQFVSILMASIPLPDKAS

Row | IC50 [nM] | Structure (SMILES)
1 | 100 | O=C(O)c1[nH]c2c(=O)[nH]cnc2c1[C@@H]1N[C@H](CO)[C@@H](O)[C@H]1O
2 | 100 | O=c1[nH]cnc2cc([C@@H]3N[C@H](CO)[C@@H](O)[C@H]3O)[nH]c12
3 | 100 | O=c1[nH]cnc2c([C@@]3(CO)NC[C@H](O)[C@@H]3O)c[nH]c12
